Data taken from ChEMBL document CHEMBL5230110, “FabI (enoyl acyl carrier protein reductase) - A potential broad spectrum therapeutic target and its inhibitors” (Eur J Med Chem, 2020).
In brackets after ≈: the same amount, converted by molar mass.

Experiments:
Escherichia coli [1] = test: Antibacterial activity against Escherichia coli assessed as bacterial growth inhibition at 50 uM measured after 24 hrs by 96-wellplate reader assay method; format: functional
[2] = test system: Mycobacterium tuberculosis; test: Antimycobacterial activity against Mycobacterium tuberculosis H37Rv assessed as reduction in bacterial growth incubated for 7 days by dye based assay; format: functional; details: 168 h, time 7 day
Moraxella catarrhalis = test: Antibacterial activity against Moraxella catarrhalis assessed as inhibition in bacterial growth measured after 24 hrs by broth microdilution method; format: functional
Staphylococcus aureus [3] = test: Antibacterial activity against Staphylococcus aureus assessed as inhibition of bacterial growth measured after 24 hrs; format: functional
Staphylococcus aureus [4] = test: Antibacterial activity against Staphylococcus aureus ATCC 29213 assessed as bacterial growth inhibition incubated for 24 hrs by broth dilution method; format: functional
[5] = Inhibition of Francisella tularensis FabI by addition of crotonyl-CoA as substrate preincubated for 10 mins followed by substrate addition in presence of NAD by spectrophotometer
Staphylococcus aureus [6] = test: Antibacterial activity against Methicillin-resistant Staphylococcus aureus ATCC 33592 assessed as bacterial growth inhibition measured after 24 hrs by broth dilution method; format: functional
Staphylococcus aureus [7] = test: Antibacterial activity against Methicillin-resistant Staphylococcus aureus N315 assessed as reduction in bacterial growth; format: functional
[8] = biological target: T1, Enoyl-[acyl-carrier-protein] reductase [NADPH] FabI (Staphylococcus aureus, UniProt Q6GI75); test: Inhibition of Staphylococcus aureus FabI in the presence of NADH using crotonyl CoA as substrate by measuring NADH consumption rate
T1 sequence (Q6GI75 whole entry): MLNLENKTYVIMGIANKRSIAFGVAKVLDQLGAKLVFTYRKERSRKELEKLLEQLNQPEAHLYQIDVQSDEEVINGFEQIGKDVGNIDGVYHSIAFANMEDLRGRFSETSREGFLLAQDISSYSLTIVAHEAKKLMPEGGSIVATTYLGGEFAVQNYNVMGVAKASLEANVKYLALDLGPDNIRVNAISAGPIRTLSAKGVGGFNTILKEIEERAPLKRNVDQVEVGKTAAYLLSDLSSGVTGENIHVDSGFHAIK

[9] = biological target: T2, Enoyl-[acyl-carrier-protein] reductase [NADH] FabI (Escherichia coli K-12, UniProt P0AEK4); test: Inhibition of Escherichia coli FabI in the presence of NADH using crotonyl CoA as substrate by measuring NADH consumption rate
T2 sequence (P0AEK4 whole entry): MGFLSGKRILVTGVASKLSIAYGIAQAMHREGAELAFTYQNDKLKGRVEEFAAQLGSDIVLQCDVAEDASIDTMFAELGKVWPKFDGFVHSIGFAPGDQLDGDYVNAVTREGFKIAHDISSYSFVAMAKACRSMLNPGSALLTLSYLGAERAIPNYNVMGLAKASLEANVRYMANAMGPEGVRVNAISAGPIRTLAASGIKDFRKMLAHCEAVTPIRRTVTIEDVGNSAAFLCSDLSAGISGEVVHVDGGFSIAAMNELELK

Staphylococcus aureus [10] = test: Antibacterial activity against methicillin-sensitive Staphylococcus aureus assessed as reduction in bacterial growth incubated for 12 hrs by microdilution method; format: functional
[11] = Cytotoxicity against mouse MH-S cells; format: functional, cell-based
[12] = Inhibition of Bacillus anthracis enoyl ACP reductase assessed as inhibition of bacterial growth
Staphylococcus aureus [13] = test: Antibacterial activity against methicillin resistant Staphylococcus aureus assessed as reduction in bacterial growth incubated for 12 hrs by microdilution method; format: functional
Bacillus anthracis = test: Antibacterial activity against Bacillus anthracis assessed as reduction in bacterial growth measured after 24 hrs by broth microdilution method; format: functional
HeLa = test: Cytotoxicity against human HeLa cells assessed as inhibition of cell growth incubated for 48 hrs by CCK8 assay; format: functional, cell-based
Staphylococcus aureus [14] = test: Bactericidal activity against methicillin-resistant Staphylococcus aureus measured after 24 hrs by sub-culturing; format: functional
[15] = test system: Mycobacterium tuberculosis; test: Antibacterial activity against Mycobacterium tuberculosis assessed as inhibition of […]; format: functional
Pseudomonas aeruginosa = test: Antibacterial activity against Pseudomonas aeruginosa assessed as bacterial growth inhibition measured after 24 hrs by micr-dilution broth method; format: functional
Enterobacter cloacae = test: Antibacterial activity against Enterobacter cloacae assessed as inhibition of bacterial growth measured after 24 hrs by micro-dilution broth method; format: functional
Acinetobacter baumannii [16] = test: Antibacterial activity against Acinetobacter baumannii W41979 assessed as inhibition of bacterial growth measured after 24 hrs by micro-dilution broth method; format: functional
Klebsiella pneumoniae [17] = test: Antibacterial activity against Klebsiella pneumoniae BAA-1705 assessed as inhibition of bacterial growth measured after 24 hrs by micro-dilution broth method; format: functional
Escherichia coli [18] = test: Antibacterial activity against Escherichia coli assessed as inhibition of bacterial growth measured after 24 hrs by micro-dilution broth method; format: functional
Staphylococcus aureus [19] = test: Antibacterial activity against Staphylococcus aureus assessed as inhibition of bacterial growth measured after 24 hrs by micro-dilution broth method; format: functional
Staphylococcus aureus [20] = test: Antibacterial activity against Methicillin-sensitive Staphylococcus aureus ATCC 4330 assessed as reduction in bacterial growth; format: functional
Staphylococcus aureus [21] = test: Antibacterial activity against methicillin-resistant Staphylococcus aureus ATCC 4330 assessed as reduction in bacterial growth; format: functional
Staphylococcus aureus [22] = test: Antibacterial activity against quinolone-resistant Staphylococcus aureus; format: functional
[23] = biological target: T1, Enoyl-[acyl-carrier-protein] reductase [NADPH] FabI; test: Inhibition of Staphylococcus aureus ATCC 29213 FabI in the presence of NADH using crotonyl CoA as substrate by measuring NADH consumption rate
Escherichia coli [24] = test: Antibacterial activity against Escherichia coli BAA 2340 assessed as reduction in microbial growth inhibition; format: functional
Acinetobacter baumannii [25] = test: Antibacterial activity against Acinetobacter baumannii W41979; format: functional
Klebsiella pneumoniae [26] = test: Antibacterial activity against Klebsiella pneumoniae BAA-1705; format: functional

Compound: Oc1ccccc1Oc1ccccc1
- MIC (Escherichia coli [1]): 3.7 µg/mL (≈ 19.9 µM)

Compound: Cc1ccc(Oc2ccccc2)c(O)c1
- MIC (Escherichia coli [1]): 1 µg/mL (≈ 4.99 µM)

Compound: Oc1cc(F)ccc1Oc1ccccc1
- MIC (Escherichia coli [1]): 0.6 µg/mL (≈ 2.94 µM)

Compound: Oc1cc(Cl)ccc1Oc1ccccc1
- MIC (Escherichia coli [1]): 0.07 µg/mL (≈ 0.317 µM)

Compound: Cc1csc(C(C)(O)c2nnc(Nc3ccn(Cc4c(F)cccc4F)n3)s2)n1 (centres undefined)
- MIC [2]: 0.2 µM (≈ 0.0869 µg/mL)

Compound: O=C(c1ccc(Cl)cc1O)N1CCc2c(n(Cc3ccc(O)cc3)c3ccccc23)C1
- MIC (Moraxella catarrhalis): 2 µg/mL (≈ 4.62 µM)
- MIC (Staphylococcus aureus [3]): 1 µg/mL (≈ 2.31 µM)

Compound: CC(c1ccc(Cl)c(Cl)c1)n1cnc2cc3c(cc21)CCC3 (centres undefined)
- MIC (Staphylococcus aureus [4]): 5.5 µg/mL (≈ 16.6 µM)
- IC50 [5]: 18 nM
- MIC (Staphylococcus aureus [6]): 6.3 µg/mL (≈ 19 µM)

Compound: CC(c1ccc(Cl)c(Cl)c1)n1cnc2cc3c(cc21)CCCC3 (centres undefined)
- MIC (Staphylococcus aureus [4]): 3.1 µg/mL (≈ 8.98 µM)
- IC50 [5]: 14 nM
- MIC (Staphylococcus aureus [6]): 3.1 µg/mL (≈ 8.98 µM)

Compound: COc1ccc(Cn2cnc3cc4c(cc32)CCC4)cc1C
- MIC (Staphylococcus aureus [4]): > 12.5 µg/mL
- IC50 [5]: 5 nM
- MIC (Staphylococcus aureus [6]): > 12.5 µg/mL

Compound: Cc1ccc(Oc2coc(COc3ccccc3)cc2=O)c(C)c1
- MIC (Staphylococcus aureus [7]): 1.56 µg/mL (≈ 4.85 µM)
- IC50 [8]: 380000 nM

Compound: Cc1cc(Cl)ccc1Oc1coc(/C=C/c2ccc[nH]2)cc1=O
- IC50 [9]: 140 nM

Compound: Cc1cc(Cl)ccc1Oc1c[nH]c(COc2ccccc2)cc1=O
- IC50 [9]: 400 nM

Compound: Cc1cc(Cl)ccc1Oc1cn(C)c(COc2ccccc2)cc1=O
- IC50 [9]: 110 nM

Compound: Cc1ccc(Oc2cn(C)c(COc3ccccc3)cc2=O)c(C)c1
- MIC (Staphylococcus aureus [7]): 0.049 µg/mL (≈ 0.146 µM)
- IC50 [8]: 80000 nM

Compound: O=[N+]([O-])c1ccc(Oc2ccc(Cl)cc2O)c(Cl)c1
- MIC (Staphylococcus aureus [10]): 0.1 µg/mL (≈ 0.333 µM)
- EC50 [11]: 9.9 µg/mL (≈ 33 µM)
- IC50 [12]: 300 nM
- MIC (Staphylococcus aureus [13]): 0.3 µg/mL (≈ 1 µM)
- MIC (Bacillus anthracis): < 0.1 µg/mL
- EC50 (HeLa): 29.3 µg/mL (≈ 97.6 µM)
- MBC (Staphylococcus aureus [14]): 0.5 µg/mL (≈ 1.67 µM)

Compound: OB1c2ccccc2N=C(S)N1c1cccnc1
- MIC [15]: 8 µg/mL (≈ 31.4 µM)

Compound: Cc1cc(=O)n(C)c2c3c4c(cc12)c(C)cc(=O)n4C(CN)CO3 (centres undefined)
- MIC (Pseudomonas aeruginosa): > 16 µg/mL
- MIC (Enterobacter cloacae): 0.5 µg/mL (≈ 1.54 µM)
- MIC (Acinetobacter baumannii [16]): 2 µg/mL (≈ 6.15 µM)
- MIC (Klebsiella pneumoniae [17]): 1 µg/mL (≈ 3.07 µM)
- MIC (Escherichia coli [18]): 0.5 µg/mL (≈ 1.54 µM)
- MIC (Staphylococcus aureus [19]): 0.05 µg/mL (≈ 0.154 µM)

Compound: Cc1c(CN(C)C(=O)/C=C/c2cnc3c(c2)C(C)(C)C(=O)N3)oc2ccccc12
- MIC (Staphylococcus aureus [20]): 0.015 µg/mL (≈ 0.0385 µM)
- MIC (Staphylococcus aureus [21]): 0.015 µg/mL (≈ 0.0385 µM)

Compound: Cc1cc(=O)n(C)c2c3c4c(cc12)c(C)cc(=O)n4CCO3
- MIC (Pseudomonas aeruginosa): > 32 µg/mL
- MIC (Enterobacter cloacae): > 32 µg/mL
- MIC (Acinetobacter baumannii [16]): 16 µg/mL (≈ 54 µM)
- MIC (Klebsiella pneumoniae [17]): > 32 µg/mL
- MIC (Escherichia coli [18]): > 32 µg/mL
- MIC (Staphylococcus aureus [19]): 0.06 µg/mL (≈ 0.202 µM)

Compound: CN1C(=O)[C@@H](c2cc(Cl)c(O)c(Cl)c2)NC(=O)[C@@H]2NC(=O)[C@@H](c3cc(Cl)c(O)c(Cl)c3)NC(=O)[C@H](NC(=O)C(=O)c3cc(Cl)c(O)c(Cl)c3)Cc3cc4ccc(cc4[nH]3)-c3cc2cc(c3O)Oc2ccc(cc2)C[C@H]1C(=O)N[C@@H](C(=O)O)c1ccc(O)cc1
- MIC (Staphylococcus aureus [22]): 2 µg/mL (≈ 1.51 µM)
- IC50 [23]: 500 nM

Compound: O=c1ccn(Cc2cccc(Br)c2)cc1C(O)c1c(Cl)cccc1Cl (centres undefined)
- IC50 [9]: 430 nM

Compound: Cc1c(CN(C)C(=O)/C=C/c2cnc3c(c2)CC(N)C(=O)N3)oc2ccccc12.Cl (centres undefined)
- MIC (Escherichia coli [24]): 4 µg/mL
- MIC (Acinetobacter baumannii [25]): 4 µg/mL
- MIC (Staphylococcus aureus [4]): 0.031 µg/mL
- MIC (Klebsiella pneumoniae [26]): 8 µg/mL

Compound: Cc1c(CN(C)C(=O)/C=C/c2cnc3c(c2)C2(CCC2)C(=O)N3)sc2ccccc12
- MIC (Staphylococcus aureus [20]): 0.015 µg/mL (≈ 0.0359 µM)
- MIC (Staphylococcus aureus [21]): 0.015 µg/mL (≈ 0.0359 µM)
